According to patent US8455523B2, “Compositions and methods for treating hyperlipidemias” (The Research Foundation of State University of New York, priority 2010, dated 2013):

Columns and labels:
[1] = tested on: hepatic mRNA of ER stress, inflammation and lipid metabolism genes; experiment: Hepatic mRNA quantification (qPCR, XBP-1 splicing) in treated mice; format: in vivo; conditions: liver
Description: FIGS. 6a and 6b. Liver samples from FIG. 16 were used to isolate total mRNA and to quantify expression of different candidate genes. Statistical analyses were as described in FIGS. 16-17.
FIGS. 9a and 9b. C57B/6J mice were fed a western diet for 8 weeks and then treated with MTP inhibitor and other indicated compounds for 8 days as described in FIG. 16. Liver samples were used to isolate mRNA and to quantify mRNA levels with different candidate genes. Stars on MTPi group represent comparison with the control group.
FIG. 16. Age matched wildtype C57/BL6J animals chow fed animals were treated with DMSO (control) or MTP inhibitor (MTPi) for one week. Age matched wildtype C57/BL6J were fed WD for one month and were administered MTPi, Lovastatin, (Lova), Pioglitazone (Pio) or 4-phenylbutyric acid (PBA) every day for one week. All drugs were administered by oral gavage. Animals were sacrificed on day 7 and livers were harvested. mRNA was extracted and subjected to qPCR analysis. * represent comparison DMSO control; # represent comparisons to WD control; @ represent comparisons to WD MTP inhibitor treated animals.
mRNA quantifications and primers used: Total RNA from tissues and cells were isolated using TriZol™ (Invitrogen). The purity and integrity of RNA were assessed by the A260/A280 ratio and 1% agarose gel electrophoresis, respectively. Only the RNAs with ratios more than 1.7 were used for cDNA synthesis. The first strand cDNA was synthesized using Omniscript RT (Qiagen) kit. Briefly, 2 μg of total RNA, 1 μM random primers (Invitrogen), 0.5 mM dNTP solution, and 0.5 U/μl Omniscript Reverse Transcriptase were incubated at 37° C. for 1 h in 20 μl of RT buffer and the reaction was terminated by incubating at 95° C. for 5 minutes. Each reaction of quantitative RT-PCR was carried out in a volume of 20 μl consisting of 5 μl cDNA sample (1:100 dilution of the first strand cDNA sample) and 15 μl of PCR master mix solution containing 1×PCR reaction buffer, 6 mM MgCl2, 200 nM primer pair, 0.025 U/μl HotStar Gold™ DNA polymerase, 200 μM dNTP solution, and 0.3 μl SYBR Green I solution (gPCR™ Core Kit for SYBR Green I, Eurogentec). The PCR was carried out by incubating the reaction mixture first for 10 minute at 95° C. followed by 40 cycles of 15 sec incubations at 95° C. and 1 min at 60° C. in the ABI 7000 SDS PCR machine. The data were analyzed using ΔΔCT method according to manufacturer's instruction and presented as arbitrary units. The primers used in this study were designed with the PrimerExpress 3.0 software (Applied Biosystems, CA) and are presented as Table 1.

MTP [2] = molecular target: T1, MTP (Mus musculus, UniProt O08601); experiment: Determination of MTP activity in tissues (liver homogenates of treated mice); format: in vivo; conditions: chow fed C57/BL6J, IP tunicamycin, 4-24 hours
T1 construct: small pieces (0.1 g) of liver and ˜1-cm segments of proximal small intestine were homogenized; from tissue; host or cells: mouse liver (C57BL/6J; Reversa mice in some experiments); supernatant of ultracentrifuged homogenate
T1 sequence (O08601 22-894): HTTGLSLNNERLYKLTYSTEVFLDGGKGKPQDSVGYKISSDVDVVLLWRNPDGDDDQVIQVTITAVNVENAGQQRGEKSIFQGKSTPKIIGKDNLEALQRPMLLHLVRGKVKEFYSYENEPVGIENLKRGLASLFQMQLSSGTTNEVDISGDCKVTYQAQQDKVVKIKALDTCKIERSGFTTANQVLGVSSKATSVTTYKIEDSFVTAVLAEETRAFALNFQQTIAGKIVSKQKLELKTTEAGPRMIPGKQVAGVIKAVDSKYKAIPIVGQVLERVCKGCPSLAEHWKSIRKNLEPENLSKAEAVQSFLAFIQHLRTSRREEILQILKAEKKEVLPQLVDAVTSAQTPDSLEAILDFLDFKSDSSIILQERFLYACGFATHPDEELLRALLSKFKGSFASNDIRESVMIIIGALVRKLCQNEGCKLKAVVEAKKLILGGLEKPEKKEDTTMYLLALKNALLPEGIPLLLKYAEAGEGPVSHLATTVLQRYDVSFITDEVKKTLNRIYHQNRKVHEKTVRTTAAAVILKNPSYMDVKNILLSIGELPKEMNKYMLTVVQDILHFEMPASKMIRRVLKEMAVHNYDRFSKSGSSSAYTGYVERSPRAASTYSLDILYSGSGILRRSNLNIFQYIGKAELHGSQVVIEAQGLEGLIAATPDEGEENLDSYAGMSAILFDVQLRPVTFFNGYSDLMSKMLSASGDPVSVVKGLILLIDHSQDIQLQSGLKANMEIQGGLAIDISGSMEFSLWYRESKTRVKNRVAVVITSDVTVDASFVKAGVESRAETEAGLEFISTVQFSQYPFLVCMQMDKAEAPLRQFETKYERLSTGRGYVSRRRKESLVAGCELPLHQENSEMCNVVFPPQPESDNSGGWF
T1 sequence (P09103 21-509 partner limits assumed): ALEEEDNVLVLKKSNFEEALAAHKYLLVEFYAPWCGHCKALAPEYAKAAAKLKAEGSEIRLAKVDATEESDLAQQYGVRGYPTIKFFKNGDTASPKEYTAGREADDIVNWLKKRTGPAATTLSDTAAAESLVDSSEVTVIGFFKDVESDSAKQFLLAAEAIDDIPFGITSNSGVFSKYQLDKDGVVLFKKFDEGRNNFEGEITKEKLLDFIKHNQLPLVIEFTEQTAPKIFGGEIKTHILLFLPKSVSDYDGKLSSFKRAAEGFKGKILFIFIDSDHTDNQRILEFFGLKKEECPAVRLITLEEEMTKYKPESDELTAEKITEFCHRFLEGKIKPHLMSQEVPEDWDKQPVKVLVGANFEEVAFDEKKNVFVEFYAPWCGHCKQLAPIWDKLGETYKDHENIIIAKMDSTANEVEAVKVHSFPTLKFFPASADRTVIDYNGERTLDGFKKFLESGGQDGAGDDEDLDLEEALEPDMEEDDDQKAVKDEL
Description: After extensive washes with ice-cold PBS, small pieces (0.1 g) of liver and ˜1-cm segments of proximal small intestine were homogenized with 1 ml of ice-cold 1 mM Tris-HCl, pH 7.6, 1 mM EGTA, and 1 mM MgCl2 buffer in a glass homogenizer. The homogenates were centrifuged (SW55 Ti rotor, 50,000 rpm, 10° C., 1 h), and supernatants were used for MTP assay as described before (41; 42) using a kit (Chylos, Inc.).

C57Bl/6J mice = experiment: ER stress induction by tunicamycin in mice: plasma AST/ALT and lipids; format: in vivo
Description: FIG. 10. Effect of tunicamycin on plasma ALT/AST levels. W iid type mice were injected intraperitoneally with 1 mg/kg tunicamycin. Plasma were collected after 48 h and used to measure enzyme activities.
FIG. 17. Age matched wildtype C57/BL6J animals chow fed animals were injected via IP with either PBS or Tunicamycin. Animals were sacrificed at 4, 8, 12 and 24 hours. Plasma and livers were collected and mRNA extracted from liver samples.
To determine whether ER stress itself would increase plasma AST/ALT, C57Bl/6J mice were injected with tunicamycin (1 mg/kg) as described before. Plasma AST/ALT levels were measured after 36 h (FIG. 10). […] We will be measuring cellular lipid to determine whether tunicamycin affects hepatic lipid levels as well as mRNA and protein levels of different candidate genes involved in ER stress pathway.
(§1) C57BL/6J Black 6 mice (stock number 000664) were obtained from Jackson Laboratory and used for chow fed and western diet fed experiments. MTP inhibitor (BMS […]) (1 mg/kg/day), Lovastatin, Pioglitazone (Toronto Research Chemicals P471000) (25 mg/kg/day) and 4-phenylbutyric acid (Calbiochem 820986) (1 g/kg/day) were administered by oral gavage. Chow fed animals were treated for one week with either DMSO or MTP inhibitor. Western diet fed animals were fed DMSO, MTP inhibitor, Pioglitazone, MTP inhibitor+Pioglitazone, Lovastatin, MTP inhibitor+Lovastatin, 4-phenylbutyric acid, and MTP inhibitor+4-phenylbutyric acid. Chow fed animals were also injected with either PBS or Tunicamycin and animals were sacrificed at 4, 8, 12 and 24 hours.

MTP [3] = molecular target: MTP (Homo sapiens, UniProt P55157); conditions: cited from earlier work
[4] = tested on: C57Bl/6J mice fed either a chow or western diet; experiment: MTP inhibitor BMS-212122-01 with or without lovastatin, pioglitazone or PBA in chow or western diet fed C57Bl/6J mice; format: in vivo; conditions: WD one month
Description: FIG. 13. Age matched wildtype C57/Bl6J animals chow fed animals were treated with DMSO (control) or MTP inhibitor (MTPi) for one week. […] All drugs were administered by oral gavage. Animals were sacrificed on day 7 and plasma and livers were harvested and analyzed. * represent comparison to DMSO control; # represent comparisons to WD control; @ represent comparisons to WD MTP inhibitor treatment.
FIG. 18. Age matched wildtype C57/BL6J were fed WD for one month and were administered MTPi, or 4-phenylbutyric acid (PBA) everyday for one week. All drugs were administered by oral gavage. Animals were sacrificed on day 7 and livers were harvested. * represent comparison DMSO control; # represent comparisons to HF MTP inhibitor treated animals.
as §1
All animals were kept in 07:00-19:00 h lighting schedule. […] Food was withdrawn 16 h before the sacrifice of the mice. On the day of the experiment, mice were anesthetized and blood was collected from the heart. Liver was collected, washed in ice-cold PBS, cut into small pieces and used for lipid extraction, histological staining, to measure different protein activities/quantities and for mRNA analysis. Lipids were extracted from the tissue homogenates following the Bligh and Dyer method. Triglyceride (Infinity TM Triglyceride, TR22421) and total cholesterol (Infinity TM Cholesterol, TR13421) levels in the tissues were determined using commercial kits (Thermo Scientific). Free cholesterol and free fatty acid levels were measured using kits from Wako Chemicals (Germany). Esterified cholesterol was calculated by subtracting the free cholesterol from the total cholesterol.
We next studied the effects of chemical inhibition of MTP in C57Bl/6J mice fed either a chow or western diet (WD) for 5 weeks. Chow fed animals were orally gavaged with either DMSO or MTP inhibitor BMS-212122-01 (MTPi; 1 mg/kg/day) for one week. WD fed animals were treated with DMSO, MTP inhibitor with or without lovastatin (50 mg/kg/day) or pioglitazone (25 mg/kg/day) daily by oral gavage for one week.

guinea pigs = conditions: cited from earlier work
[5] = in vivo; cited from earlier work
[6] = chow fed C57/BL6J, IP, 4-24 hours

Sequence of MTP (Homo sapiens, UniProt P55157) (P55157 19-894, species assumed): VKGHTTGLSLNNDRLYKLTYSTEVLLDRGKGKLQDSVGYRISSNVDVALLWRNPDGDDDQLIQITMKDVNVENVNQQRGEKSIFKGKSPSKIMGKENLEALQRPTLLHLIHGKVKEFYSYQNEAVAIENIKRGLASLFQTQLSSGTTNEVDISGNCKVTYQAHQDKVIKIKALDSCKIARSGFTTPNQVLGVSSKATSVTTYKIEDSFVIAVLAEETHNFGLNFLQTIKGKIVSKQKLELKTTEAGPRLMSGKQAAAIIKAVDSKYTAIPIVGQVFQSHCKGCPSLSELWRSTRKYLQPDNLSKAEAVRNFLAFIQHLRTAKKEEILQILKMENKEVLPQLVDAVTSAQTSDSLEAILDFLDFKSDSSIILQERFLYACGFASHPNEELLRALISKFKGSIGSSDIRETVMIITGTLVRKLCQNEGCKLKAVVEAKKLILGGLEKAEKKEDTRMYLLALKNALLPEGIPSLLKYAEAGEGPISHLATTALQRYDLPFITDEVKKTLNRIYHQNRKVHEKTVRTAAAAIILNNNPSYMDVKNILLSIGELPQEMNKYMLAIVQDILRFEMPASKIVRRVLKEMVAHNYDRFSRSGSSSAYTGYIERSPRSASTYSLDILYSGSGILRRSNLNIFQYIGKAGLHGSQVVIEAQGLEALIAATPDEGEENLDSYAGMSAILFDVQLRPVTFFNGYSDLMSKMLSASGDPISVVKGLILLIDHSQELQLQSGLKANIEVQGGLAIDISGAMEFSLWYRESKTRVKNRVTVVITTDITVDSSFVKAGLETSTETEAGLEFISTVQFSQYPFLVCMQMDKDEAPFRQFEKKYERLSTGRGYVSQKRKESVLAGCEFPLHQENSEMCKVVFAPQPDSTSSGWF
Sequence of MTP (Homo sapiens, UniProt P55157) (P07237 18-508 partner, species assumed): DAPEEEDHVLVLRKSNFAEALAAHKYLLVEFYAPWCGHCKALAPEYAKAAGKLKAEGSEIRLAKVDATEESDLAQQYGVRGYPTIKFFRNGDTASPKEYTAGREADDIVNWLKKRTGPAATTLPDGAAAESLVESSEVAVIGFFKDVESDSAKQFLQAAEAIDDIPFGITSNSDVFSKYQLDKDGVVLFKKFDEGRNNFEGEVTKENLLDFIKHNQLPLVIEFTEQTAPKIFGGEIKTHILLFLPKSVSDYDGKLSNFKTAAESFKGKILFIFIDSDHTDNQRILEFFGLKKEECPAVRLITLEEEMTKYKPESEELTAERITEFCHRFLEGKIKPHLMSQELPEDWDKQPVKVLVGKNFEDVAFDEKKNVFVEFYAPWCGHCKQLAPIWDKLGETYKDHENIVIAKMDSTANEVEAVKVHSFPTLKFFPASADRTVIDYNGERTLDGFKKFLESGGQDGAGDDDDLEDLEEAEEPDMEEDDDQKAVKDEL

tunicamycin
XBP-1 splicing assay ([1]; tunicamycin IP): revealed the spliced form of XBP-1
mRNA expression of ER stress markers Bip, Ire1α and CHOP ([1]; tunicamycin IP time course): elevations
hepatic MTP activity (MTP [2]): no effect
Plasma AST/ALT levels (C57Bl/6J mice; 1 mg/kg injected, measured after 36 h): significantly enhanced
plasma AST/ALT vs PBS injected animals (C57Bl/6J mice; 24 hours after injection): still significantly elevated
increase of plasma AST/ALT (C57Bl/6J mice; acute induction of ER stress): 2.5 fold
time of peak plasma AST/ALT levels after injection (C57Bl/6J mice; chow fed C57/BL6J, IP): 8 h
hepatic lipids (C57Bl/6J mice; [6]): increased
plasma cholesterol and triglycerides (C57Bl/6J mice; [6]): lowered
plasma transaminases (C57Bl/6J mice; chow fed C57/BL6J, IP, vs PBS): higher

O=C1c2c(O)cc(O)cc2OC(c2ccc(O)c(O)c2)C1O (stereo not shown) [Taxifolin]
cellular lipids (MTP [3]): without increasing
triglyceride synthesis and MTP activity (MTP [3]): inhibits

O=C(O)CCCc1ccccc1 [PBA, 4-phenylbutyric acid]
mRNA levels of ER stress markers vs MTPi treated animals ([1]; PBA with MTPi): significantly lower
hepatic triglycerides and free cholesterol (hepatic lipids) ([4]; MTPi ± PBA one week): did not reduce
MTP activity, hepatic and plasma lipids ([4]; PBA 1 g/kg/day alone or co-administered with MTP inhibitor, one week): no effect
rises in plasma AST/ALT after MTP inhibition ([4]; PBA 1 g/kg/day with MTP inhibitor, one week): spared increases

CCOC(=O)C(COC(=O)Cc1ccc(NC(=O)c2ccccc2-c2ccc(C(F)(F)F)cc2)c(C(=O)N(C)C)c1)(C(=O)OCC)c1ccccc1 [JTT-130]
hepatic triglyceride (guinea pigs): without increasing
plasma triglyceride and LDL cholesterol (guinea pigs): lower

COc1cccc(C(=O)Nc2ccc3c(c2)CCN(C(=O)Oc2ccccc2)C3)c1-c1ccc(C(F)(F)F)cc1 [SLx-4090]
plasma lipids [5]: lower
